Assay results as given in article PMC6980330 (Steroids, 2019).

Target: T1, vitamin D receptor (VDR) (Homo sapiens, UniProt P11473)
T1 sequence (P11473 118-427 limits assumed): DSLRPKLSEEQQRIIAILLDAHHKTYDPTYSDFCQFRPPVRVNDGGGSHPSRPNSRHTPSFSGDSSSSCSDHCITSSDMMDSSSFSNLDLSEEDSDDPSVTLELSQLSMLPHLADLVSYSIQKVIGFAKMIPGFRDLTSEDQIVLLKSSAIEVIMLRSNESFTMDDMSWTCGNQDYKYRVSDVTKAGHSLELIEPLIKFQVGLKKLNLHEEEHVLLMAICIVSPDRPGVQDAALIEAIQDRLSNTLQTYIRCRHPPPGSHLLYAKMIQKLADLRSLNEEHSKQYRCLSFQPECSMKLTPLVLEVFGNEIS
Format: binding

Work on `C=C1CC[C@H](O)C/C1=C/C=C1\CCC[C@]2(C)[C@@H]([C@H](C)CC(=O)O)CC[C@@H]12` [compound 13, calcioic acid] yielded an IC50 of 71.2 µM.
